Assay results from patent US11207301B2, “Sphingosine 1 phosphate receptor agonists for neuroprotection” (RECEPTOS LLC, priority 2017, dated 2021).

Key:
Recombinant human MAO-B = target: T1, Recombinant human MAO-B (Homo sapiens, UniProt P27338); test: MAO-B inhibition, conversion of kynuramine to 4-hydroxyquinoline; assay type: biochemical
T1 construct: purchased Sigma-Aldrich M7441; host or cells: baculovirus infected insect cells
T1 sequence (P27338 1-520): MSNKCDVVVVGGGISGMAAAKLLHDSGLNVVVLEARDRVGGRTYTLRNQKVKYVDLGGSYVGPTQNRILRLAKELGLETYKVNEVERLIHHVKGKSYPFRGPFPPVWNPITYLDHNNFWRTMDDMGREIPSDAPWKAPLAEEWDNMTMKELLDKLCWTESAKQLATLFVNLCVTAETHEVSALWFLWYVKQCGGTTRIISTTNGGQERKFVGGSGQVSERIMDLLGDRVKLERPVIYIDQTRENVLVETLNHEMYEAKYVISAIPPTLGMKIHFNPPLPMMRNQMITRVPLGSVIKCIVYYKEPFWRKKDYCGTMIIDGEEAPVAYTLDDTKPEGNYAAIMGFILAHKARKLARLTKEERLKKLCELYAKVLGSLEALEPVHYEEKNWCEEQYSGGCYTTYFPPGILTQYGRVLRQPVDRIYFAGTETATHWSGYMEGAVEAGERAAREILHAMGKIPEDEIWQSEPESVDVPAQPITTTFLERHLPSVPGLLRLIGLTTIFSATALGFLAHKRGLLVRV
Procedure: The effect of a S1P receptoragonist on MAO-B activity can be assessed by measuring the inhibition of conversion of substrate kynuramine to 4-hydroxyquinoline as described in Example 4.
Compound 1 and Compound 2-S were evaluated for their ability to inhibit MAO-A and MAO-B. Inhibition of the conversion of kynuramine, a substrate for MAO-A and MAO-B, to 4-hydroxyquinoline was used to assess the inhibitory potential of Compound 1 and Compound 2-S. Recombinant human MAO-A (product number M7316) and MAO-B (product number M7441) expressed in baculovirus infected insect cells were obtained from Sigma-Aldrich, Saint Louis, Mo. USA were used as a source of purified MAOs.
Recombinant MAO-A (0.01 mg/mL, final concentrations) and MAO-B (0.02 mg/mL, final concentration) were diluted to desired concentrations in 100 mM potassium phosphate buffer (pH 7.4) containing 5 mM MgCl2. The diluted protein fractions were preincubated with various concentrations of each test compound at 37° C. for 2 min. The concentrations used were 100, 33, 10, 3.3, 1.0, 0.33 μM and acetonitrile/DMSO as vehicle control for MAO-A and 1.0, 0.3, 0.1, 0.03, 0.01, 0.003 μM and acetonitrile/DMSO as vehicle control for MAO-B. The reaction was started by addition of kynuramine to the incubation mixture. The final concentration of kynuramine was 40 μM for MAO-A and 25 μM for MAO-B. The total incubation volume was 0.250 mL. This concentration was selected to be close to the Km values of MAO-A (Km 42 μM) and MAO-B (Km 26 μM). After 10 min of incubation, aliquots (100 μL) of the reaction mixture were taken and added to 200 μL acetonitrile containing 0.5 μM IS (acetaminophen). The reaction product, 4-hydroxyquinoline was analyzed by LC-MS/MS as described below.
MS characterization and detection of kynuramine and 4-hydroxyquinoline was performed using ABI 4000 Sciex QTrap mass spectrometer utilizing a Turbo Spray. The mass spectrometer was controlled by Analyst v1.6.2. The ESI was operated in a positive ion mode and the experimental parameters were set as follows: ion spray voltage, 2000; source temperature, 550° C.; curtain gas, 20; collision gas, medium ion source gas 1, 55; ion source gas 2, 50. […]
The gradient system was used to separate the analytes with a flow rate of 0.5 ml/min using mobile phase A, water containing 0.1% formic acid and mobile phase B, acetonitrile containing 0.1% formic acid. […] The analytes were monitored using multiple reaction monitoring and the ion transitions (Q1/Q3) were as follows: 4-hydroxyquinoline 146/104 (collision energy, CE was 27; declustering potential, DP, 50, and IS (acetaminophen), 152/110 (collision energy, CE was 27; declustering potential, DP, 50). All data were analyzed using AB Sciex Analyst v1.6.2 software.

[1] = system: primary rodent astrocytes; test: Primary rodent astrocytes in vitro, resting and LPS-activated; assay type: cell-based
Procedure: (§1) In addition, the effects of ozanimod on the CNS were examined in vivo using the cuprizone-induced mouse model of demyelination and in vitro in primary rodent astrocytes. Efficacy of ozanimod or compound (2-R) was examined in the cuprizone-induced mouse model of neuroprotection. C57BL/6 mice were treated with cuprizone (0.3% weight/weight orally) and rapamycin (10 mg/kg intraperitoneally daily) to demyelinate axons in the brain and concurrently treated with ozanimod (0.1, 0.3, or 1 mg/kg) or compound (2-S) (1 mg/kg) by daily oral gavage to investigate its neuroprotective activity. Neuroprotection was assessed through examination of axonal pathology in the corpus callosum using SMI-32 (antineurofilament H non-phosphorylated mouse monoclonal antibody) staining, functional assessment through kinematic gait analysis and the plasma biomarker neurofilament light chain (NfL). Further, direct activity of ozanimod was examined in resting and activated primary rodent astrocytes in vitro.

[2] = system: cuprizone-induced mouse model of demyelination; test: Cuprizone-induced mouse model of demyelination / neuroprotection; assay type: in vivo, C57BL/6 mice
From the text: as §1, with “The effect of a S1P receptor agonist on spinal cord axial demyelination or reduction in axonal breaks can be assessed by measuring concentration of neurofilament light chain (NfL) in the plasma. NfL is released to the plasma following axonal injury and degeneration. Histological examination of axons with antineurofilament H non-phosphorylated mouse antibody SMI-32 can also be used to assess axonal demyelination or breaks. NfH is phosphorylated in healthy axons and unphosphorylated in damaged axons. In” for “In”

Row | MAO-B inhibition (in words) (Recombinant human MAO-B) | IC50 (Recombinant human MAO-B; kynuramine 25 μM, 10 min incubation) | SMILES | release of pro-inflammatory cytokines, including IL-1β, TNFα, IL-6, and KC/GRO ([1]; induced by LPS activation) | ERK and AKT signaling pathways ([1]; primary rodent astrocytes) | overall kinematic gait score ([2]; 0.1, 0.3, or 1 mg/kg vs vehicle (FIG. 3)) | kinematic gait ([2]; cuprizone-induced demyelinated mice vs vehicle, 1 mg/kg (FIG. 2)) | neuroprotection, reduction in swollen and transected axons ([2]; cuprizone-induced mouse model)
1 | potent inhibition | 6.6 nM | CC(C)Oc1ccc(-c2nc(-c3cccc4c3CCC4=O)no2)cc1C#N [Compound 1, 2-isopropoxy-5-(3-(1-oxo-2,3-dihydro-1H-inden-4-yl)-1,2,4-oxadiazol-5-yl)benzonitrile] |  |  |  |  | 
2 |  |  | CC(C)Oc1ccc(-c2nc(-c3cccc4c3CC[C@@H]4NCCO)no2)cc1C#N [Ozanimod] | attenuated the release of pro-inflammatory cytokines | directly activated ERK and AKT signaling pathways | significantly improved overall kinematic gait score | improved kinematic gait | neuroprotective
